Test results as given in PMC4596527 (Bioorganic & medicinal chemistry, 2010).
Marks after values point to notes of the source that are not given here.

Assays:
myocite = details: exposure to hypoxantine and xantine oxidase; cited from earlier work
[1] = system: Langendorff-perfused heart; details: attributed to activation of Akt and ERK1/2 pathways; cited from earlier work
[2] = system: Chinese hamster ovary (CHO) cells; test: MTT cell viability, protection against H2O2-mediated cytotoxicity in CHO cells; details: for Cytotoxicity CHO (%): 50 μM compound for 2 h, then 1mM H2O2 for 1 h, MTT
reperfused myocardium = details: in vivo I/R injury; cited from earlier work
[3] = system: human aortic vascular smooth muscle cells (HSMCs); test: MTT cell viability, protection against H2O2-mediated cytotoxicity in HSMC cells; details: 50 μM compound for 2 h, then 1mM H2O2 for 1 h
[4] = Superoxide radical scavenging by EPR spin trapping; details: PBS pH 7.4
[5] = 1-mM compound in presence of 1-mM DEPMPO
[6] = 100-μM compound in presence of 1-mM DEPMPO

Question: Which myocite viability (myocite) does the source give for COc1ccc(CCN(C)CCCC(C#N)(c2ccc(OC)c(OC)c2)C(C)C)cc1OC (stereo not shown) [Compound 1, verapamil] here?
Answer: The myocite viability was “preserved”.

Question: And the “oxidative damage during ischemia and reperfusion” value [1]?
Answer: The value was “decreased oxidative damage”.

Question: Which “protection of CHO cells against H2O2 compared with verapamil (in words)” value (“protection … compared with verapamil (in words)” below) [2] does the source give for COc1ccc(CCN(C)CCCC(CNC(=O)C2=CC(C)(C)N(O)C2(C)C)(c2ccc(OC)c(OC)c2)C(C)C)cc1OC.Cl (stereo not shown) [Compound 12B] here?
Answer: Its value is “good protection”.

Question: For COc1ccc(CCN(C)CCCC(CNC(=O)C2=CC(C)(C)N(O)C(C)(C)C2)(c2ccc(OC)c(OC)c2)C(C)C)cc1OC.Cl (stereo not shown) [Compound 16B], which “protection … compared with verapamil (in words)” value [2] is on record?
Answer: Its value is “good protection”.

Question: And the “Akt and Bcl-2 levels in reperfused myocardium” value (reperfused myocardium)?
Answer: The value was “enhanced”.

Question: What about the “nitric oxide generation in reperfused myocardium” value (reperfused myocardium) of the same compound?
Answer: The value was “increased”.

Question: What about the “superoxide production in reperfused myocardium” value (reperfused myocardium) of the same compound?
Answer: The value was “markedly attenuated”.

Question: For COc1ccc(CCN(C)CCCC(CNC(=O)C2CC(C)(C)N(O)C(C)(C)C2)(c2ccc(OC)c(OC)c2)C(C)C)cc1OC.Cl (stereo not shown) [Compound 17B], which “protection … compared with verapamil (in words)” value [2] is on record?
Answer: The value was “good protection”.

Question: With COc1ccc(CCN(CCCC(C#N)(c2ccc(OC)c(OC)c2)C(C)C)CC2=CC(C)(C)NC2(C)C)cc1OC (stereo not shown) [Compound 23A, 2-(3,4-Dimethoxyphenyl)-5-[[2-(3,4-dimethoxyphenyl)ethyl]-(2,2,5,5-tetramethyl-2,5-dihydro-1H-pyrrol-3-ylmethyl)-amino]-2-isopropyl-pentanenitrile] as the compound, how does the “Cytotoxicity CHO (%)” value [2] read?
Answer: The value was 74.0 ± 3.4%.

Question: What about the “Cytotoxicity HSMC (%)” value [3] of the same compound?
Answer: Its value is 64.8 ± 7.1%.

Question: What about the “Superoxide Scavenging (%)” value [4, 5] of the same compound?
Answer: Its value is 70.6 ± 3.3 ^a %.

Question: For COc1ccc(CCN(CCCC(C#N)(c2ccc(OC)c(OC)c2)C(C)C)CC2=CC(C)(C)N(O)C2(C)C)cc1OC.Cl (stereo not shown) [Compound 23B, 2-(3,4-Dimethoxyphenyl)-5-[[2-(3,4-dimethoxyphenyl)ethyl]-(1-hydroxy-2,2,5,5-tetramethyl-2,5-dihydro-1H-pyrrol-3-ylmethyl)-amino]-2-isopropyl-pentanenitrile HCl Salt], which “Cytotoxicity CHO (%)” value [2] is on record?
Answer: Its value is 66.7 ± 3.0%.

Question: And the “Cytotoxicity HSMC (%)” value [3]?
Answer: Its value is 58.6 ± 4.8%.

Question: And the “Superoxide Scavenging (%)” value [4, 5]?
Answer: Its value is 100%.

Question: And the “Superoxide Scavenging (%)” value [4, 6]?
Answer: Its value is 78.1±2.6%.

Question: Which “Cytotoxicity CHO (%)” value [2] does the source give for COc1ccc(CCN(CCCC(C#N)(c2ccc(OC)c(OC)c2)C(C)C)CC2=CC(C)(C)NC(C)(C)C2)cc1OC (stereo not shown) [Compound 24A, 2-(3,4-Dimethoxyphenyl)-5-[[2-(3,4-dimethoxyphenyl)ethyl]-(2,2,6,6-tetramethyl-1,2,3,6-tetrahydropyridin-4-ylmethyl)amino]-2-isopropyl-pentanenitrile] here?
Answer: The value was 95.3 ± 0.5%.

Question: What about the “Cytotoxicity HSMC (%)” value [3] of the same compound?
Answer: Its value is 91.1 ± 0.5%.

Question: And the “Superoxide Scavenging (%)” value [4, 5]?
Answer: The value was 68.2 ± 7.6 ^a %.

Question: What does the source list for COc1ccc(CCN(CCCC(C#N)(c2ccc(OC)c(OC)c2)C(C)C)CC2=CC(C)(C)N(O)C(C)(C)C2)cc1OC.Cl (stereo not shown) [Compound 24B, 2-(3,4-Dimethoxyphenyl)-5-[[2-(3,4-dimethoxyphenyl)ethyl]-(1-hydroxy-2,2,6,6-tetramethyl-1,2,3,6-tetrahydropyridin-4-ylmethyl)amino]-2-isopropyl-pentanenitrile HCl Salt]?
Answer: Cytotoxicity CHO (%) [2]: 64.8 ± 5.6%; Cytotoxicity HSMC (%) [3]: 57.2 ± 5.4%; Superoxide Scavenging (%) [4, 5]: 100%; Superoxide Scavenging (%) [4, 6]: 82.5±2.7%

Question: What does the source list for “[4-Cyano-4-(3,4-dimethoxyphenyl)-5-methylhexyl]-[2-(3,4-dimethoxyphenyl)ethyl]-(1-oxyl-2,2,5,5-tetramethyl-2,5-dihydro-1H-pyrrol-3-ylmethyl)methylammonium Iodide Salt Radical [Compound 25]”?
Answer: protection of CHO cells against H2O2 compared with verapamil (in words) [2]: good protection; Superoxide Scavenging (%) [4, 5]: 73.8 ± 3.0 ^a %

Question: For “[4-Cyano-4-(3,4-dimethoxyphenyl)-5-methylhexyl]-[2-(3,4-dimethoxyphenyl)ethyl]-(1-oxyl-2,2,6,6-tetramethyl-1,2,3,6-tetrahydropyridin-4-ylmethyl)methylammonium Iodide Salt Radical [Compound 26]”, which “Superoxide Scavenging (%)” value [4, 5] is on record?
Answer: Its value is 48.1 ± 2.7 ^a %.
